Results published in patent US20170050936A1, “CERTAIN CHEMICAL ENTITIES, COMPOSITIONS, AND METHODS” (NEUPHARMA, INC., priority 2013, published 2017).

Tests used:
FGFR1 = target: T1, FGFR1 (Homo sapiens, UniProt P11362); experiment: Z'-LYTE kinase inhibition assay, FGFR1; format: biochemical; conditions: read-out: IC50 against FGFR1
T1 construct: purchased Invitrogen
Procedure: (§1) Inhibitory activities of compounds against BTK, EGFR and EGFR mutants (EGFR L858R, EGFR T790M, EGFR L858R/T790M), FGFR1, FGFR2, JAK2, JAK3 and KDR were measured by Invitrogen using Z′-LYTE® Method as briefly described in the following.
(§2) Test Compounds are screened in 1% DMSO (final) in the well. For 10 point titrations, 3-fold serial dilutions are conducted from the starting concentration. All ATP Solutions are diluted to a 4× working concentration in Kinase Buffer (50 mM HEPES pH 7.5, 0.01% BRIJ-35, 10 mM MgCl2, 1 mM EGTA). Peptide/Kinase Mixtures are diluted to a 2× working concentration in the appropriate Kinase Buffers as described below.
(v) Peptide/Kinase Mixtures for measurement of FGFR1:
(§3) The 2× FGFR1/Tyr 04 mixture is prepared in 50 mM HEPES pH 7.5, 0.01% BRIJ-35, 10 mM MgCl2, 4 mM MnCl2, 1 mM EGTA, 2 mM DTT. The final 10 μL Kinase Reaction consists of 0.41-3.5 ng FGFR1 and 2 μM Tyr 04 in 50 mM HEPES pH 7.5, 0.01% BRIJ-35, 10 mM MgCl2, 2 mM MnCl2, 1 mM EGTA, 1 mM DTT. After the 1 hour Kinase Reaction incubation, 5 μL of a 1:64 dilution of Development Reagent B is added.
(§4) Reaction starts by 30-second shaking of mixture consisting of 2.5 μL 4× test compound, 5 μL 2× kinase reaction mixture and 2.5 μL 4× ATP Solution on Bar-coded Corning, low volume NBS, black 384-well plate (Corning Cat. #3676). Then the mixture is incubated for 60-minute at room temperature for the kinase reaction, followed by addition of 5 μL of a 1:1024 dilution of development reagent A and 30-second plate shake. The mixture is then incubated for another 60-minute at room temperature for development reaction. Finally fluorescence is read by plate reader.
(§5) To determine IC50 of a compound against EGFR, EGFR mutant and other kinases, a series of concentrations of the compound were tested for the inhibition. […] The scale utilized in Table 4 is as follows: +++ less than 100 nM, ++100-500 nM and + greater than 500 nM.

FGFR2 = target: T2, FGFR2 (Homo sapiens, UniProt P21802); experiment: Z'-LYTE kinase inhibition assay, FGFR2; format: biochemical; conditions: read-out: IC50 against FGFR2
T2 construct: purchased Invitrogen
Procedure: as §1, §2
(v) Peptide/Kinase Mixtures for measurement of FGFR2:
as §3, with “FGFR2/Tyr” for “FGFR1/Tyr”, “0.19-2.36” for “0.41-3.5”, “FGFR2” for “FGFR1”
as §4, §5

KDR (VEGFR2) = target: T3, KDR (VEGFR2) (Homo sapiens, UniProt P35968); experiment: Z'-LYTE kinase inhibition assay, KDR; format: biochemical; conditions: read-out: IC50 against KDR
T3 construct: purchased Invitrogen
Procedure: as §1, §2
(v) Peptide/Kinase Mixtures for measurement of KDR (VEGFR2):
The 2× KDR (VEGFR2)/Tyr 01 mixture is prepared in 50 mM HEPES pH 7.5, 0.01% BRIJ-35, 10 mM MgCl2, 1 mM EGTA. The final 10 μL Kinase Reaction consists of 0.5-11.7 ng KDR (VEGFR2) and 2 μM Tyr Olin 50 mM HEPES pH 7.5, 0.01% BRIJ-35, 10 mM MgCl2, 1 mM EGTA. After the 1 hour Kinase Reaction incubation, 5 μL of a 1:256 dilution of Development Reagent B is added.
as §4, §5

EGFR (ErbB1) = target: T4, EGFR (ErbB1) (Homo sapiens, UniProt P00533); experiment: Z'-LYTE kinase inhibition assay, EGFR; format: biochemical; conditions: read-out: IC50 against EGFR
T4 construct: purchased Invitrogen
Procedure: Inhibitory activities of compounds against BTK, EGFR and EGFR mutants (EGFR L858R, EGFR T790M, EGFR L858R/T790M), FGFR1, FGFR2, JAK2, JAK3 and KDR were measured by Invitrogen using Z'-LYTE® Method as briefly described in the following. Test Compounds are screened in 1% DMSO (final) in the well. For 10 point titrations, 3-fold serial dilutions are conducted from the starting concentration. All ATP Solutions are diluted to a 4× working concentration in Kinase Buffer (50 mM HEPES pH 7.5, 0.01% BRIJ-35, 10 mM MgCl2, 1 mM EGTA). Peptide/Kinase Mixtures are diluted to a 2× working concentration in the appropriate Kinase Buffers as described below. (i) Peptide/Kinase Mixtures for measurement of EGFR (ErbB1): The 2× EGFR (ErbB1)/[…] mixture is prepared in 50 mM HEPES pH 7.5, 0.01% BRIJ-35, 10 mM MgCl2, 4 mM MnCl2, 1 mM EGTA, 2 mM DTT. The final 10 μL Kinase Reaction consists of 1.1-5.25 ng EGFR (ErbB1) and 2 μM […] in 50 mM HEPES pH 7.5, 0.01% BRIJ-35, 10 mM MgCl2, 2 mM MnCl2, 1 mM EGTA, 1 mM DTT. After the 1 hour Kinase Reaction incubation, 5 μL of a 1:64 dilution of Development Reagent B is added. Reaction starts by 30-second shaking of mixture consisting of 2.5 μL 4× test compound, 5 μL 2× kinase reaction mixture and 2.5 μL 4× ATP Solution on Bar-coded Corning, low volume NBS, black 384-well plate (Corning Cat. #3676). Then the mixture is incubated for 60-minute at room temperature for the kinase reaction, followed by addition of 5 μL of a 1:1024 dilution of development reagent A and 30-second plate shake. The mixture is then incubated for another 60-minute at room temperature for development reaction. Finally fluorescence is read by plate reader. To determine IC50 of a compound against EGFR, EGFR mutant and other kinases, a series of concentrations of the compound were tested for the inhibition.

H1299 cells = experiment: Inhibition of cancer cell growth, MTT assay, H1299; conditions: Homo sapiens, NCI-H1299, 72 h, read-out: IC50 in H1299 cells
Procedure: Inhibition of cell growth by compounds was measured using MTT assay (Mosmann, T., Journal of Immunological Methods, 1983, 65, 55-63). Tumor cell lines were purchased from ATCC (American Type Culture Collection, Manassas, Va.). All cell lines were maintained in RPMI 1640 (Hyclone) supplemented with 10% fetal bovine serum (FBS, Hyclone), glutamine (2 mM, Hyclone), and antibiotics (penicillin 100 U/mL and streptomycin 50 μg/mL) at 37° C. in a humidified atmosphere of 5% CO2 in air. Taxol (as a positive control, Sigma) and compounds were dissolved in DMSO (Sigma), and the final concentration of DMSO in the medium was 1%. Tumor cells were plated in 96-well plates at densities of about 4000 cells/well of a 96-well plate and allowed to adhere/grow for 24 h. They were then treated with various concentrations of drug for 72 h. […] The number of cells remaining after 72 h was compared to the number of viable cells at the time of compound addition by measuring the absorbance at 570 nm, allowing for the calculation of growth inhibition.
All concentrations of compounds were tested in triplicate and controls were averaged over 4 wells. IC50 was calculated by plotting the concentration of compound vs the percentage of inhibition in treated wells using GraphPad Prism 5. […]

T1 sequence (P11362 22-822): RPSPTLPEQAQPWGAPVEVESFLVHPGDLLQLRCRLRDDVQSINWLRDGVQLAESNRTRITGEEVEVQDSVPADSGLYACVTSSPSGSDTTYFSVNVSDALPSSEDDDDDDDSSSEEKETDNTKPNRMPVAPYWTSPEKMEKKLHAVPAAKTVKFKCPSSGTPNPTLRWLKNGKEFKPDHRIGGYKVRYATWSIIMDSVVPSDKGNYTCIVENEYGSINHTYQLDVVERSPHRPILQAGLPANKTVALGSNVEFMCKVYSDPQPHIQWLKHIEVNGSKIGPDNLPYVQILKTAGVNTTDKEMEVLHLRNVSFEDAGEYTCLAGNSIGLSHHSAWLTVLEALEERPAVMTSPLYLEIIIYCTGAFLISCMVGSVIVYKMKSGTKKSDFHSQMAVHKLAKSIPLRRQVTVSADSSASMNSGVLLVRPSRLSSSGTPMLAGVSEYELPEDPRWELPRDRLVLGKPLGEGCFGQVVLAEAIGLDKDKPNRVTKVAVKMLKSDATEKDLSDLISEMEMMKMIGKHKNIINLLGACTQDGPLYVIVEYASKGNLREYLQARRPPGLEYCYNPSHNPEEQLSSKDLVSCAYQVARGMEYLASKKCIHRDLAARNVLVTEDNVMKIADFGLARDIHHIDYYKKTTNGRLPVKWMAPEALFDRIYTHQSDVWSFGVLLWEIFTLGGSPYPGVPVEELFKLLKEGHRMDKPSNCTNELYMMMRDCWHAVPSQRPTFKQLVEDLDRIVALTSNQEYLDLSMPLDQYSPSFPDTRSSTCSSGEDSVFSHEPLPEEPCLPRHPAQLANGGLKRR
T3 sequence (P35968 20-1356): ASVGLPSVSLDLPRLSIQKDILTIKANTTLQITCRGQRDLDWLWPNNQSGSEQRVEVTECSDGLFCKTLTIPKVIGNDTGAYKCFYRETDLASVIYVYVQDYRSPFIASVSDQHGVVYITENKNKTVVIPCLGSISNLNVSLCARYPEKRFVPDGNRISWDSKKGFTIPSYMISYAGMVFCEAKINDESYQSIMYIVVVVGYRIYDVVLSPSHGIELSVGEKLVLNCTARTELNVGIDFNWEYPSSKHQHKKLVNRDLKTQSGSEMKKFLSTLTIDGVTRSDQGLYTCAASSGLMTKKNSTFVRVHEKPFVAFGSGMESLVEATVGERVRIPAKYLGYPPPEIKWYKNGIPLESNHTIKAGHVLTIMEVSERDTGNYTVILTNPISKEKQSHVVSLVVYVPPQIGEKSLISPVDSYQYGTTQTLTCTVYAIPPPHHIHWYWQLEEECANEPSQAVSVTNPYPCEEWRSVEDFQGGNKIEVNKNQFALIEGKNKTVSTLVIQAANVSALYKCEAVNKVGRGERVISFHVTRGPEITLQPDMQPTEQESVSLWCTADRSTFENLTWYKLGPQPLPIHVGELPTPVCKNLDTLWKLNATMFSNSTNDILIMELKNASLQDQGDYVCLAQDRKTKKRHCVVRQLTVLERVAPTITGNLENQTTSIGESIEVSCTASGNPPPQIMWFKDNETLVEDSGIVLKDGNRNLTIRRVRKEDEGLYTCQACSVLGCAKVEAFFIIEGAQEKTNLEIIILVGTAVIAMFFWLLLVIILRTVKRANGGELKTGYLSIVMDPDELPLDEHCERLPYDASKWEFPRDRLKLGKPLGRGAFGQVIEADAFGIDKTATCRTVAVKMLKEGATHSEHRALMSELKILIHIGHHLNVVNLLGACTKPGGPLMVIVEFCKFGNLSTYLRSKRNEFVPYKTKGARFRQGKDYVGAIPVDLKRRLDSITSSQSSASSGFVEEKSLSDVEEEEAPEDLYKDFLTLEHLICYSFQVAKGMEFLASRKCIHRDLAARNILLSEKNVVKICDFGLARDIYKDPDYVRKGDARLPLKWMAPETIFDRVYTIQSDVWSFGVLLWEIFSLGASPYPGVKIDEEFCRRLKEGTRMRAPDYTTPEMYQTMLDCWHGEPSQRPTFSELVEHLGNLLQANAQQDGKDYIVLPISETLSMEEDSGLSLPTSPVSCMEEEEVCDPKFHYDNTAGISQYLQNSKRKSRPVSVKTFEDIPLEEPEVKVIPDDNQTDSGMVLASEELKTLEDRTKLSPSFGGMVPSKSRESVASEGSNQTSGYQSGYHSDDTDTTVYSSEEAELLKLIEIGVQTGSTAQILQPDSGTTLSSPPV
T2 sequence (P21802 22-821): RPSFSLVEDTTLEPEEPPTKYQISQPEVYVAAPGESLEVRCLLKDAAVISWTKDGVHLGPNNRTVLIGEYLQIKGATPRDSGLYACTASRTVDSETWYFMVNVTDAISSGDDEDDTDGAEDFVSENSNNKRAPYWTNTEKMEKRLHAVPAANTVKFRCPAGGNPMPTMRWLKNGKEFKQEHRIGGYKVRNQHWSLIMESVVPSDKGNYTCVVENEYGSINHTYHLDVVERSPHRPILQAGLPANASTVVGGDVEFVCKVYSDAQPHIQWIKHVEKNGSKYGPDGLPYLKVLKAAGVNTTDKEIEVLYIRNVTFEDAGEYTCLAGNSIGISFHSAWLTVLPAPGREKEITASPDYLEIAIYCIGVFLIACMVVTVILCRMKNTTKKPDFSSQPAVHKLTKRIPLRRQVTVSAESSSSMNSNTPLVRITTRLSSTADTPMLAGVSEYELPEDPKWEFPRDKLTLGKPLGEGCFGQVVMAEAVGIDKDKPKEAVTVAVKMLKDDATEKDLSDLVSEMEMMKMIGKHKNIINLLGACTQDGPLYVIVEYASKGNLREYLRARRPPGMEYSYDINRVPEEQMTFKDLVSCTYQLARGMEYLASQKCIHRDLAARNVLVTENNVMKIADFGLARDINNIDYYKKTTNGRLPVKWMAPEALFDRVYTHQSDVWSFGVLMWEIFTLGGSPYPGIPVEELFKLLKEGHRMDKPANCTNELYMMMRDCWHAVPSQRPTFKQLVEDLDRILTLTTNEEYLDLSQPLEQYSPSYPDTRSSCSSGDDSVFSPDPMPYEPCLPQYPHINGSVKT
T4 sequence (P00533 25-1210): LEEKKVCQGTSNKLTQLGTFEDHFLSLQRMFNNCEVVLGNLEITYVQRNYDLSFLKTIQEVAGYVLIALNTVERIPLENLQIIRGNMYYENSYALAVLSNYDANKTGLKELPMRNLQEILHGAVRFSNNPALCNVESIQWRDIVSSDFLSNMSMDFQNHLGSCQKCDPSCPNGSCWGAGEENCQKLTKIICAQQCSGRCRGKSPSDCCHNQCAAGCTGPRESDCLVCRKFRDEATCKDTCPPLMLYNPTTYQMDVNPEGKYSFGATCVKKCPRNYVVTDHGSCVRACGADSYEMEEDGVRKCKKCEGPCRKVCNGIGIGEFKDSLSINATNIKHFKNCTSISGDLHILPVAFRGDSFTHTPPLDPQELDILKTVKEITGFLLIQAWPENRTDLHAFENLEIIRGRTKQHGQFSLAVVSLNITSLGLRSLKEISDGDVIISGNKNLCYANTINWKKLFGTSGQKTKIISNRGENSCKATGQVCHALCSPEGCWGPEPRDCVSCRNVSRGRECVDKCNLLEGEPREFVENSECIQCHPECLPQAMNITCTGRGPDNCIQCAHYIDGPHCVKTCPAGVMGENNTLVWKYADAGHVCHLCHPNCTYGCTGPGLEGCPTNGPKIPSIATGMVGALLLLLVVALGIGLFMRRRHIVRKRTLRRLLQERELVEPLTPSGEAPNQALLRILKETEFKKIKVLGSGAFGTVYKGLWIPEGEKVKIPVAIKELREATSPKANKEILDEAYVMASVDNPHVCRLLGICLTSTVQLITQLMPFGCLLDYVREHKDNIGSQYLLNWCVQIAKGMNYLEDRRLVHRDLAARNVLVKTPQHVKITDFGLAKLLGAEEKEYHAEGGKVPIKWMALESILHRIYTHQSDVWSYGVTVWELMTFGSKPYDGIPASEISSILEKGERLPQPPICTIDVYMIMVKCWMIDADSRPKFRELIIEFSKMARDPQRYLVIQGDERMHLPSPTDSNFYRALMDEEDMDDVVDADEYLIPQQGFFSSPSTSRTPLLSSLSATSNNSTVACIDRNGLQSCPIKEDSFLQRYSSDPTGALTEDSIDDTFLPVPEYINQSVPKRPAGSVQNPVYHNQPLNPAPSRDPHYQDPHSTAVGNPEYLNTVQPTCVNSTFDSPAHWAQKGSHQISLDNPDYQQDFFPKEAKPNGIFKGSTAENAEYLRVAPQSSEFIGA

Row | Structure (SMILES) | IC50 (FGFR1) | IC50 (FGFR2) | IC50 (KDR (VEGFR2)) | IC50 (EGFR (ErbB1)) | further results
1 | C=CC(=O)Nc1cccc(-c2cccc3cnc(Nc4ccc(OC5CCN(C)CC5F)cc4)nc23)c1 (centres unmarked) [Example C079, N-(3-(2-((4-((3-fluoro-1-methylpiperidin-4-yl)oxy)phenyl)amino)quinazolin-8-yl)phenyl)acrylamide] |  |  |  | 100 to 500 nM | 
2 | C=CC(=O)Nc1cccc(-c2cccc3cnc(Nc4ccc(N5CCN(C)CC5)c(C(N)=O)c4)nc23)c1 [Example C085, 5-((8-(3-acrylamidophenyl)quinazolin-2-yl)amino)-2-(4-methylpiperazin-1-yl)benzamide] |  |  |  | 100 to 500 nM | 
3 | C=CC(=O)Nc1cccc(-c2cccc3cnc(Nc4ccc(N5CCN(C(C)=O)CC5)cc4)nc23)c1 [Example C032, N-(3-(2-((4-(4-acetylpiperazin-1-yl)phenyl)amino)quinazolin-8-yl)phenyl)acrylamide] |  |  |  | 100 to 500 nM | 
4 | C=CC(=O)Nc1cccc(-c2cccc3cnc(Nc4ccc(OCCO)cc4)nc23)c1 [Example C108, N-(3-(2-((4-(2-hydroxyethoxy)phenyl)amino)quinazolin-8-yl)phenyl)acrylamide] |  |  |  | 100 to 500 nM | 
5 | C=CC(=O)Nc1cccc(-c2cccc3cnc(Nc4cc(F)c(N5CCN(C)CC5)c(F)c4)nc23)c1 [Example C146, N-(3-(2-((3,5-difluoro-4-(4-methylpiperazin-1-yl)phenyl)amino)quinazolin-8-yl)phenyl)acrylamide] |  |  |  |  | IC50 (H1299 cells): < 100 nM
6 | C=CC(=O)Nc1cccc(-c2cccc3cnc(Nc4ccc(N5CCN(C)CC5)cc4F)nc23)c1 [Example C044, N-(3-(2-((2-fluoro-4-(4-methylpiperazin-1-yl)phenyl)amino)quinazolin-8-yl)phenyl)acrylamide] | 100 to 500 nM |  | 100 to 500 nM |  | 

Further lines, with some results ahead:

Row | IC50 (FGFR1) | IC50 (FGFR2) | IC50 (KDR (VEGFR2)) | Structure (SMILES) | IC50 (EGFR (ErbB1)) | further results
7 | 100 to 500 nM | 100 to 500 nM | 100 to 500 nM | C=CC(=O)Nc1cccc(-c2cccc3cnc(Nc4ccc(N5CCN(CCO)CC5)cc4F)nc23)c1 [Example C147, N-(3-(2-((2-fluoro-4-(4-(2-hydroxyethyl)piperazin-1-yl)phenyl)amino)quinazolin-8-yl)phenyl)acrylamide] |  | 
8 | 100 to 500 nM | 100 to 500 nM | 100 to 500 nM | C=CC(=O)Nc1cccc(-c2cccc3cnc(Nc4ccc(N5CCN(CCO)CC5)c(F)c4F)nc23)c1 [Example C151, N-(3-(2-((2,3-difluoro-4-(4-(2-hydroxyethyl)piperazin-1-yl)phenyl)amino)quinazolin-8-yl)phenyl)acrylamide] |  | 
9 |  | 100 to 500 nM |  | C=CC(=O)Nc1cccc(-c2cccc3cnc(Nc4ccc(N5CCN(CCO)CC5)cc4)nc23)c1 [Example C059, N-(3-(2-((4-(4-(2-hydroxyethyl)piperazin-1-yl)phenyl)amino)quinazolin-8-yl)phenyl)acrylamide] |  | 
